Two compounds from US4737583A, “Anthracyclin derivatives” (priority 1983, dated 1988) can be followed below.

The structures appear in SMILES notation. Converted amounts (≈) assume the structure as drawn. Read-outs that look alike come from different tables or passages of the source.

Data set [1] is described as follows: solubility (description of the substance).
In data set [2] the test system is L1210 leukemia cells. Briefly: cell proliferation test, incorporation of C14-thymidine into DNA of L1210 leukemia cells. In kind it is cell-based. The note with it: Mus musculus. How it is done:
The cytorhodins according to the invention are distinguished by a powerful cytostatic activity and gave the following action on L1210 leukemia cells in the cell proliferation test:
The inhibiting action is determined as follows (cell proliferation test):
L1210 cells in the exponential growth phase (5×10^3 /ml in RPMI 1640) are incubated with various concentrations of the test substance in a microtiter plate for 72 hours (37° C., 5% of CO2, 95% relative atmospheric humidity). Controls comprise cells which are incubated only with fresh medium. All the determinations are carried out as quadruplicate determinations. After 65 hours, 50 μl of C14-thymidine (1.5 μC/ml) are added in order to radioactively label the DNA of the cells. After incubation for 7 hours, the cells are filtered off with suction and the DNA is precipitated with 5% strength trichloroacetic acid and washed successively with water and methanol. After drying at 50° C., the radioactivity incorporated into the DNA is determined, after addition of 5 ml of scintillation liquid. The results are given as the relationships of the scintillation index after incubation with test substance in percent of the untreated control. […]

Turning to `CCC1(O)CC(OC2CC(N(C)C)C(OC3CC4OC5CC(=O)C(C)OC5OC4C(C)O3)C(C)O2)c2c(O)c3c(c(O)c2C1OC1CC(N(C)C)C(O)C(C)O1)C(=O)c1cccc(O)c1C3=O` (stereo not drawn) [Cytorhodin S], in data set [1], the “solubility in methanol, ethyl acetate, chloroform and toluene” value is reported as “readily soluble”; the “solubility in water and hexane” value is given as “insoluble”. Also, the IC50 (usually the point on the concentration scale where inhibition reaches its midpoint) in data set [2] (L1210 leukemia cells, 72 hours, 37° C., incorporation of radioactive thymidine reduced by 50% compared with the control, read-out: IC50) came to 0.3 ng/mL (≈ 0.319 nM).
Take `CCC1(O)CC(OC2CC(N(C)C)C(O)C(C)O2)c2c(O)c3c(c(O)c2C1OC1CC(N(C)C)C(OC2CC4OC5CC(=O)C(C)OC5OC4C(C)O2)C(C)O1)C(=O)c1cccc(O)c1C3=O` (stereo not drawn) [Cytorhodin T]: in data set [1], the “solubility in methanol, ethyl acetate, chloroform and toluene” value is reported as “readily soluble”; the “solubility in water and hexane” value is reported as “insoluble”. In data set [2] (L1210, 72 h), this compound came in with a half-maximal inhibitory concentration (IC50) of 2 ng/mL (≈ 2.13 nM).
